Laboratory results reported in patent US20210228545A1, “METHODS OF TREATING CONDITIONS RELATED TO THE S1P1 RECEPTOR” (Arena Pharmaceuticals, Inc., priority 2018, published 2021).

Columns and labels:
OCT1 = target: T1, OCT1 (Homo sapiens, UniProt O15245); test: Transporter substrate evaluation, HEK293 cells; type: in vitro ADME; conditions: 1 and 10 μM
T1 construct: expressed in transfected cells; host or cells: HEK293
T1 sequence (O15245 1-554): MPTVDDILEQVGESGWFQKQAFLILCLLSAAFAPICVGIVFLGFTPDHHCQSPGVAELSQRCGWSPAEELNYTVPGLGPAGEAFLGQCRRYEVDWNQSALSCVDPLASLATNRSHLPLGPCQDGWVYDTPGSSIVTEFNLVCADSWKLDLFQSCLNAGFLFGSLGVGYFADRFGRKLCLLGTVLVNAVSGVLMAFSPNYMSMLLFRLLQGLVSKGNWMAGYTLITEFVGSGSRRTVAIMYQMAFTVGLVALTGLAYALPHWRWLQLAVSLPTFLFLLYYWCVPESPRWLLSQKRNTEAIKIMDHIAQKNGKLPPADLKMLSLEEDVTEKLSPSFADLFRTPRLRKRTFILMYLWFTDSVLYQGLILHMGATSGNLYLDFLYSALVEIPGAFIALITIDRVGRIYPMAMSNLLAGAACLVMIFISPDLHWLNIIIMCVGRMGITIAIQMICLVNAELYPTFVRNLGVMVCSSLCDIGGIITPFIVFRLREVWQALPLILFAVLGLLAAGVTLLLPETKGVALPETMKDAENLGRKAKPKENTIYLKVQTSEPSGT

MATE1 = target: T2, MATE1 (Homo sapiens, UniProt Q96FL8); test: Transporter inhibition, HEK293 cells; type: in vitro ADME
T2 construct: expressed in transfected cells; host or cells: HEK293
T2 sequence (Q96FL8 whole entry): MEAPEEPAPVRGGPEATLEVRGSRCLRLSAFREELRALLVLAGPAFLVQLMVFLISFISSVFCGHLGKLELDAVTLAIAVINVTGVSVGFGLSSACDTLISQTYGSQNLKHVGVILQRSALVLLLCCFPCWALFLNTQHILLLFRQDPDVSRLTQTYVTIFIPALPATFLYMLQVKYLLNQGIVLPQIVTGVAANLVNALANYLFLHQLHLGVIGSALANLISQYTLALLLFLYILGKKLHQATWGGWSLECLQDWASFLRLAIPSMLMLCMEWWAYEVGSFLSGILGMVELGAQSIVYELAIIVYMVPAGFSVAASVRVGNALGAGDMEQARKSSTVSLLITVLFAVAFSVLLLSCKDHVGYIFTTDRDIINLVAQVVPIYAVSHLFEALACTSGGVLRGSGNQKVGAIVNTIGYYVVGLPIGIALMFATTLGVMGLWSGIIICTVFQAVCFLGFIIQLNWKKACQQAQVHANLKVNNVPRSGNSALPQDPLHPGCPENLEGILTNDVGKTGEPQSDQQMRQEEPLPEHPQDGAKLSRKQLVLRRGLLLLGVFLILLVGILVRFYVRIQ

OATP1B3 = target: T3, OATP1B3 (Homo sapiens, UniProt Q9NPD5); test: Transporter substrate evaluation, HEK293 cells; type: in vitro ADME; conditions: 1 and 10 μM
T3 construct: expressed in transfected cells; host or cells: HEK293
T3 sequence (Q9NPD5 1-702): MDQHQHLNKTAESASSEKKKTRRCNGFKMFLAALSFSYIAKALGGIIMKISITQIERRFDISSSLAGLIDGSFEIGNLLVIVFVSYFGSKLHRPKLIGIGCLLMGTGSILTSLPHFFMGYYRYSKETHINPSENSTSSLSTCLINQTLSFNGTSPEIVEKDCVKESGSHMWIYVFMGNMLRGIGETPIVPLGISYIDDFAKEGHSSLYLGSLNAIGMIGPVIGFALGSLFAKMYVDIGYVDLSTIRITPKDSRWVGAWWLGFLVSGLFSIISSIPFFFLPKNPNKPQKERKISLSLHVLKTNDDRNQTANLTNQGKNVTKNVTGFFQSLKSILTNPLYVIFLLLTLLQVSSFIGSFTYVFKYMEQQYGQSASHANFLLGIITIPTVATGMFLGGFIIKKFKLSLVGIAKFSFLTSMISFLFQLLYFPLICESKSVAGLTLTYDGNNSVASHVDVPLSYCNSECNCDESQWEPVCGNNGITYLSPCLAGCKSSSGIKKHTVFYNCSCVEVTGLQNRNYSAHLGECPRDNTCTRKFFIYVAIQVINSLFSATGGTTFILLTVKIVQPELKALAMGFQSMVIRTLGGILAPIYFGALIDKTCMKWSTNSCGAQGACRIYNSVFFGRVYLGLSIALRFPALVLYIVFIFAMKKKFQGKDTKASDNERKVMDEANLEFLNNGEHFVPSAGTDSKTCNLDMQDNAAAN

OCT2 = target: T4, OCT2 (Homo sapiens, UniProt O15244); test: Transporter substrate evaluation, HEK293 cells; type: in vitro ADME; conditions: 1 and 10 μM
T4 construct: expressed in transfected cells; host or cells: HEK293
T4 sequence (O15244 1-555): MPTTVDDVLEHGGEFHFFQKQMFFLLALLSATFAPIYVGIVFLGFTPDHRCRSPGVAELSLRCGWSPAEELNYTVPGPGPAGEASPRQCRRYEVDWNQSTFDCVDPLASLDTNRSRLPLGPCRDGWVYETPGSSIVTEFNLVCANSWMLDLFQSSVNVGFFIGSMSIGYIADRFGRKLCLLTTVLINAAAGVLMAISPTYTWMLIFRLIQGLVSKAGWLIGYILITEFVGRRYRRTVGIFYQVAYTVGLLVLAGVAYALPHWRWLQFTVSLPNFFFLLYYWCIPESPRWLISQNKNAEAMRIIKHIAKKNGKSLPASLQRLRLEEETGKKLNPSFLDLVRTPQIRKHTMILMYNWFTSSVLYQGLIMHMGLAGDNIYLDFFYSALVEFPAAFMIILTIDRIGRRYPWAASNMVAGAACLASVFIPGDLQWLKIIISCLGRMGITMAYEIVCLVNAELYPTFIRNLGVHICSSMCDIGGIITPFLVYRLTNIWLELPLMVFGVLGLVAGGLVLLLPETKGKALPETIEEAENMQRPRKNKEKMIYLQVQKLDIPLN

[1] = in vivo
UGT1A1 = target: T5, UGT1A1 (Homo sapiens, UniProt P22309); test: Direct inhibition of UGT activity in human liver microsomes; type: in vitro ADME; conditions: highest concentration tested (10 μM)
T5 construct: human liver microsomes from a pool of 200 individuals; from tissue; host or cells: human liver microsomes, pool of 200 individuals
T5 sequence (P22309 26-533): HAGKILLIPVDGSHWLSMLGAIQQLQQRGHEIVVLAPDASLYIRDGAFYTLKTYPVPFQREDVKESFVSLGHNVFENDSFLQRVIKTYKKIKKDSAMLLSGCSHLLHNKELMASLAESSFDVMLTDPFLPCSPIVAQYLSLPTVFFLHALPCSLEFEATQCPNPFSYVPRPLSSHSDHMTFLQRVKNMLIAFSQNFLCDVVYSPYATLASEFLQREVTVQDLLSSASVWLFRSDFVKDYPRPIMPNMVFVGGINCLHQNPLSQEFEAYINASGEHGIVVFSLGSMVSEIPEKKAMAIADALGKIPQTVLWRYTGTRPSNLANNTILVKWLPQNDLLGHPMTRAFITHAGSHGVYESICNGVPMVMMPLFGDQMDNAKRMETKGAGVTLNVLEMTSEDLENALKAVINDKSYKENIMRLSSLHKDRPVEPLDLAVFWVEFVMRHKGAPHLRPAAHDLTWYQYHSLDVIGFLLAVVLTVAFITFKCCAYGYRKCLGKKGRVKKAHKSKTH
From the text: (§1) Known metabolism-dependent and/or direct inhibitors of CYP and UGT enzymes were included as positive controls, as applicable.

UGT1A6 = target: T6, UGT1A6 (Homo sapiens, UniProt P19224); test: as above; type: in vitro ADME; conditions: highest concentration tested (10 μM)
T6 construct: human liver microsomes from a pool of 200 individuals; from tissue; host or cells: human liver microsomes, pool of 200 individuals
T6 sequence (P19224 27-532): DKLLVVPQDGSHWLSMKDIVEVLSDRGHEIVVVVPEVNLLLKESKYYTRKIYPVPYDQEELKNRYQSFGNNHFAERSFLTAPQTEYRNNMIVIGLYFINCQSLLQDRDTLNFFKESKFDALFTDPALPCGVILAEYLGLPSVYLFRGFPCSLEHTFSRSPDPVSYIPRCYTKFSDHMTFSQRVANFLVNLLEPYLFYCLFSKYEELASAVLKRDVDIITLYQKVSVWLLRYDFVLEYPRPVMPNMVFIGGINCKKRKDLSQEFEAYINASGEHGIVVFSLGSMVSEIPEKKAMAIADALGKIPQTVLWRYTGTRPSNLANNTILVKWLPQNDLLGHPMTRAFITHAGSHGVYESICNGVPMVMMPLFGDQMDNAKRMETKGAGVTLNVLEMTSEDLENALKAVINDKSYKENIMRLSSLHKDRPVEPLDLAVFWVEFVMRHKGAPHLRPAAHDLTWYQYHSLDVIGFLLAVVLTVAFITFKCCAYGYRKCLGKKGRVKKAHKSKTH
From the text: as §1

Compound: O=C(O)C[C@H]1CCc2c1[nH]c1ccc(OCc3ccc(C4CCCC4)c(C(F)(F)F)c3)cc21 [Compound 1, (R)-2-(7-(4-cyclopentyl-3-(trifluoromethyl)benzyloxy)-1,2,3,4-tetrahydrocyclopenta[b]indol-3-yl)acetic acid]
- Potential substrate of OCT1 (OCT1; HEK293 cells): not a substrate of OCT1 and not a substrate and No
- Uptake ratio into OCT1-expressing cells (OCT1; absence and presence of quinidine (100 μM)): below two
- IC50 (MATE1; HEK293 cells, [14C]-metformin (10 μM), 1 and 10 μM tested): > 10 µM
- Inhibition of MATE1 (MATE1; up to 10 μM): less than 50%
- Potential substrate of OATP1B3 (OATP1B3; HEK293 cells): not a substrate of OATP1B3 and not a substrate and No
- Uptake ratio into OATP1B3-expressing cells (OATP1B3; absence and presence of rifampin): less than two
- Potential substrate of OCT2 (OCT2; HEK293 cells): not a substrate of OCT2 and not a substrate and No
- Uptake ratio into OCT2-expressing cells (OCT2; absence and presence of quinidine (300 μM)): below two
- Gender difference in mean plasma concentrations and exposure parameters [1]: only moderately higher in females compared to males
- inhibition at 10 µM (UGT1A1): ≤ 28%
- inhibition at 10 µM (UGT1A6): ≤ 48%
